According to patent US8822211B2, “Device and method for concentrating and detecting pathogenic microbes from blood products and/or their derivatives” (Becton Dickinson Infusion Therapy Systems Inc., priority 2001, dated 2014):
“And” between values parts separate entries of the source, which are not always exact repeats. Equal entries are not always repeated.

Key:
Type in all cases: cell-based
[1] = test system: platelets (platelet concentrate PC 6); experiment: Platelet aggregation with thrombin, counting of residual platelets after 11 μm filtration; conditions: 10 IU thrombin per test, PC 6, 5 minutes, 11 μm filter
Method: Thrombin is a strong agonist of platelet aggregation. Thrombin solutions (reference T8885 Sigma) were prepared at a concentration of 100 IU/ml when used at the rate of 10 IU/test and in diluted solution form (100 μl of thrombin mother solution with the addition of 900 μl of PBS buffer) when used at the rate of 1 IU/test.
Platelet aggregation by the intermediary of thrombin comprised:
placing 160 μl of platelet concentrate in a tube to which was added 20 μl of PBS buffer and 20 μl of thrombin;
(§1) the tubes were agitated manually for 5 minutes at ambient temperature;
800 μl of PBS buffer was added to the tubes;
the content of the tubes was filtered on a filter with a porosity of 11 μm;
dilutions were created in series 1/20 to 1/10 from the filtrates;
[…] of each dilution of the filtrate on a CB04 membrane were filtered;
an esterase labeling was performed; and
the platelets possibly retained on the membrane were counted.

[2] = test system: E. coli; experiment: Platelet aggregation with thrombin in the presence of pathogenic microbes, bacteria counting; conditions: for Counting results (E. coli): PC 6, 11 μm filter
Method: The experimental studies performed to evaluate the aggregation of pathogenic microbes in the presence of thrombin comprised the following steps:
a cryobead of E. coli was introduced into a tube of 9 ml of tryptone soy broth and incubated at 37° C. for 18-24 hours;
160 μl of platelet concentrate was added to 20 μl of the E. coli suspension and 20 μl of thrombin;
the tube was agitated manually for 5 minutes at ambient temperature;
800 μl of PBS buffer was added;
filtration was performed through a filter of 11 μm porosity;
dilutions in series were performed: 1/20 and 1/10 and 1/10;
filtration was performed on 100 μl of sample on a CB04 membrane;
labeling with esterase was performed; and […]

[3] = test system: Staphylococcus epidermidis; experiment: Platelet aggregation with ADP in the presence of pathogenic microbes, bacteria counting; conditions: 10 μM ADP
Method: Platelet aggregation in the presence of ADP comprised the following steps:
a cryobead of Staphylococcus epidermidis was introduced into a tube of 9 ml of tryptone soy broth and incubated at 37° C. for 18-24 hours;
onto 400 μl of platelet concentrate there was added 50 μl of the suspension of Staph. epidermidis and 50 μl of ADP;
as §1
500 μl of PBS buffer was added;
filtration was performed on a filter with a porosity of 5 μm;
dilutions were made in series of 1/20 and 1/10 and 1/10;
100 μl of the sample was filtered on a CB04 membrane;
labeling with an esterase was performed; and
The pathogenic microbes were seeded at a high concentration to augment a possible trapping effect. ADP was added to the platelets and the bacteria at a concentration of […].

Compound | platelet count after aggregation and filtration [1] | Counting results (E. coli) ([2]; 1 IU thrombin) | Counting results (E. coli) ([2]; 10 IU thrombin) | clot formation after addition ([2]; platelet concentrate with E. coli) | bacteria recovered after the aggregation step ([3]; PC 6) | Concentration bacteria/ml ([3]; PC 6, 5 μm filter) | Results (bacteria count) ([3]; PC 6, 5 μm filter)
Thrombin | 44 and 30 | 140 and 167 | 109 and 122 | A clot appeared almost instantly | – | – | –
Nc1ncnc2c1ncn2[C@@H]1O[C@H](COP(=O)(O)OP(=O)(O)O)[C@@H](O)[C@H]1O [ADP] | – | – | – | – | 74% | 4.7E+07 bacteria/ml | 492 and 441
